IC50 data for 1 compound are collected here from ChEMBL document CHEMBL6182879, “Synthesis and biological evaluation of novel 4-Arylaminoquinolines derivatives as EGFR/HDAC inhibitors” (Bioorg Med Chem Lett, 2025).

The data set in a line: Cytotoxicity against human 16-HBE cells by CCK8 assay. The following applies: 16hbe14o-. A general note: Tetrazolium assays rely on reduction of a dye to a coloured formazan, in cell work by metabolically active cells.

Molecules are shown by their SMILES. pIC50: −log10 of the molar value.

Usually pIC50 stands for the negative decadic logarithm of the IC50, by convention in mol/L. Turning to `O=C(CCCCCCC(=O)Nc1ccccc1)NO` [VORINOSTAT], the pIC50 was 4.30.
